{"source": "the kinase profiling compilation of Christmann-Franck et al. (2016)", "test_in_all_cases": "KINOMEscan competition binding", "details_in_all_cases": "compound 10.0 µM", "key": {"EPHA2 (human)": {"biological_target": "EPHA2 (human) (UniProt P29317)"}, "FGFR2 (human)": {"biological_target": "FGFR2 (human) (UniProt P21802)"}, "TESK1 (human)": {"biological_target": "TESK1 (human) (UniProt Q15569)"}, "TNNI3K (human)": {"biological_target": "TNNI3K (human) (UniProt Q59H18)"}, "CDK18 (human)": {"biological_target": "CDK18 (human) (UniProt Q07002)"}, "DDR2 (human)": {"biological_target": "DDR2 (human) (UniProt Q16832)", "sequence (Q16832 whole entry, looked up)": "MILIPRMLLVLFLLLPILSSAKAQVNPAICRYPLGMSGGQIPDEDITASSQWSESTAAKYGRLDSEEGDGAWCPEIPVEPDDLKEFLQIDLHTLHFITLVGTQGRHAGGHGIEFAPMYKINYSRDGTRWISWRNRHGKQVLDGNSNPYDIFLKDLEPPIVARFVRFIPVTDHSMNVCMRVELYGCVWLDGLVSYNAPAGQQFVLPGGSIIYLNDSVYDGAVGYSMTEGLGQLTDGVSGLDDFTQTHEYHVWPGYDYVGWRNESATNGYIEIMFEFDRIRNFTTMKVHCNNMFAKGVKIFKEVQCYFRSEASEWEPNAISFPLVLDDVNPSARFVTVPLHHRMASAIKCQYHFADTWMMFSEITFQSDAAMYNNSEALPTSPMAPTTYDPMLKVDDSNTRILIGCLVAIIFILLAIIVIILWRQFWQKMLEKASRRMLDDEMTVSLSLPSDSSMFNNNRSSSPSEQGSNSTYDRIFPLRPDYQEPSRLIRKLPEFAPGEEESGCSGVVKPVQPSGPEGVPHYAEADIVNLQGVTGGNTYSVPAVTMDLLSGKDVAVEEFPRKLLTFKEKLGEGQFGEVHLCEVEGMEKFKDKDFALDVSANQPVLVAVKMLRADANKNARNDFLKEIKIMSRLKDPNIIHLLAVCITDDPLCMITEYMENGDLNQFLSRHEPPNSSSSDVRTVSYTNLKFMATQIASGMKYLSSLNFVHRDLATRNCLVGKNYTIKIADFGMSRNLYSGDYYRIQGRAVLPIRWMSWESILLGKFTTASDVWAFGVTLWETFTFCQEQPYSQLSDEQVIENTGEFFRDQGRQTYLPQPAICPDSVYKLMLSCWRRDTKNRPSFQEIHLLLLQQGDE"}, "[1]": {"tested_on": "ABL1 (human), P00519 [M351T]"}, "EPHB3 (human)": {"biological_target": "EPHB3 (human) (UniProt P54753)"}, "SIK2 (human)": {"biological_target": "SIK2 (human) (UniProt Q9H0K1)"}, "ALK (human)": {"biological_target": "ALK (human) (UniProt Q9UM73)"}, "STK10 (human)": {"biological_target": "STK10 (human) (UniProt O94804)"}, "STK38L (human)": {"biological_target": "STK38L (human) (UniProt Q9Y2H1)"}, "INSR (human)": {"biological_target": "INSR (human) (UniProt P06213)"}, "EIF2AK2 (human)": {"biological_target": "EIF2AK2 (human) (UniProt P19525)"}, "[2]": {"tested_on": "RET (human), P07949 [M918T]"}, "MAP3K12 (human)": {"biological_target": "MAP3K12 (human) (UniProt Q12852)", "sequence (Q12852 whole entry, looked up)": "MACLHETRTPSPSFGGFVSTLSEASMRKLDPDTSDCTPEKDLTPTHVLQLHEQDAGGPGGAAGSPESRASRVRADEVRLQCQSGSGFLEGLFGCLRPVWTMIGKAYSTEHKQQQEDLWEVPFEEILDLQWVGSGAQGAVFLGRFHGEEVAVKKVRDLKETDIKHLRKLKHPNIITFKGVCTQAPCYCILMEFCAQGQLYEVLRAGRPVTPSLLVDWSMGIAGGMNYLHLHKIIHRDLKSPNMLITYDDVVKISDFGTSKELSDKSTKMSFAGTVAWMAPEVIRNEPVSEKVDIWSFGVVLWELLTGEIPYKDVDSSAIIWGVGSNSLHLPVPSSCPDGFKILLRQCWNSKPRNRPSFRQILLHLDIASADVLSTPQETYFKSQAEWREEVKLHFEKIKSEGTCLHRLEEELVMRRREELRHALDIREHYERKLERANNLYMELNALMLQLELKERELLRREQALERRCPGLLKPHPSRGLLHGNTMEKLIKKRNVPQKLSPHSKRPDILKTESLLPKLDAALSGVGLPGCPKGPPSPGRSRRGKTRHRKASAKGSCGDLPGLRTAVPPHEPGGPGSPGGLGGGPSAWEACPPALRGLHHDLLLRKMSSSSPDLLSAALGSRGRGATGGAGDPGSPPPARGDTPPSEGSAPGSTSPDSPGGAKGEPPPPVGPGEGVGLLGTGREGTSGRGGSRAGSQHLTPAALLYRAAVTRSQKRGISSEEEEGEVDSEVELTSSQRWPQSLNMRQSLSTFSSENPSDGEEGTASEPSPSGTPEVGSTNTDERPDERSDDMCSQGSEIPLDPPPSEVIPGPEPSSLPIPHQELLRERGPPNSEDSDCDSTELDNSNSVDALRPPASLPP"}, "PRKD2 (human)": {"biological_target": "PRKD2 (human) (UniProt Q9BZL6)"}, "MAPK4 (human)": {"biological_target": "MAPK4 (human) (UniProt P31152)"}, "PRKCQ (human)": {"biological_target": "PRKCQ (human) (UniProt Q04759)"}, "RAF1 (human)": {"biological_target": "RAF1 (human) (UniProt P04049)"}, "LATS1 (human)": {"biological_target": "LATS1 (human) (UniProt O95835)"}, "EPHA6 (human)": {"biological_target": "EPHA6 (human) (UniProt Q9UF33)"}, "PKMYT1 (human)": {"biological_target": "PKMYT1 (human) (UniProt Q99640)"}, "STK3 (human)": {"biological_target": "STK3 (human) (UniProt Q13188)"}, "AURKA (human)": {"biological_target": "AURKA (human) (UniProt O14965)"}, "PRKG1 (human)": {"biological_target": "PRKG1 (human) (UniProt Q13976)"}, "MARK2 (human)": {"biological_target": "MARK2 (human) (UniProt Q7KZI7)"}, "ZAP70 (human)": {"biological_target": "ZAP70 (human) (UniProt P43403)"}, "LATS2 (human)": {"biological_target": "LATS2 (human) (UniProt Q9NRM7)"}, "BMPR1A (human)": {"biological_target": "BMPR1A (human) (UniProt P36894)"}, "MARK3 (human)": {"biological_target": "MARK3 (human) (UniProt P27448)"}, "MLTK (human)": {"biological_target": "MLTK (human) (UniProt Q9NYL2)", "sequence (Q9NYL2 whole entry, looked up)": "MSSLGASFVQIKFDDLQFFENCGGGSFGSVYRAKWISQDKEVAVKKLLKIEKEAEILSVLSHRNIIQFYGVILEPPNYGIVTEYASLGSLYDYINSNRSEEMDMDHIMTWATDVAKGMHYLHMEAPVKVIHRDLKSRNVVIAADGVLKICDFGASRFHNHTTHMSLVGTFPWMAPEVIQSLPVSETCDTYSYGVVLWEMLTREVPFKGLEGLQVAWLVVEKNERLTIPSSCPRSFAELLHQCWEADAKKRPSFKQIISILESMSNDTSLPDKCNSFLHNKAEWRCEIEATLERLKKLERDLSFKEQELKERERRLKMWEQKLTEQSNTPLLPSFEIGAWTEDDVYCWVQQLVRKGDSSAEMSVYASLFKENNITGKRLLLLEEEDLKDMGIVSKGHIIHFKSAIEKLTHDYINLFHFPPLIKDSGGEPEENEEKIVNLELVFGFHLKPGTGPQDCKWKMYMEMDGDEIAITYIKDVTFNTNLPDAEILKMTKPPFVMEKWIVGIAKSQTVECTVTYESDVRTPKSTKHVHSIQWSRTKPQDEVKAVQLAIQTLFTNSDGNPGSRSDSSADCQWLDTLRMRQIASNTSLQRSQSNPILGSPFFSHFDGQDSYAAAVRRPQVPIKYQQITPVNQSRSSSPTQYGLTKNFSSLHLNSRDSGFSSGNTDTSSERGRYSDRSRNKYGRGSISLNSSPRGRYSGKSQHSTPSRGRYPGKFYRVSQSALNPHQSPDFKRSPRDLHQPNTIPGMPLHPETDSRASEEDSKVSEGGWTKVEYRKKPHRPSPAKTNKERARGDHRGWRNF"}, "PIK3CD (human)": {"biological_target": "PIK3CD (human) (UniProt O00329)", "sequence (O00329 whole entry, looked up)": "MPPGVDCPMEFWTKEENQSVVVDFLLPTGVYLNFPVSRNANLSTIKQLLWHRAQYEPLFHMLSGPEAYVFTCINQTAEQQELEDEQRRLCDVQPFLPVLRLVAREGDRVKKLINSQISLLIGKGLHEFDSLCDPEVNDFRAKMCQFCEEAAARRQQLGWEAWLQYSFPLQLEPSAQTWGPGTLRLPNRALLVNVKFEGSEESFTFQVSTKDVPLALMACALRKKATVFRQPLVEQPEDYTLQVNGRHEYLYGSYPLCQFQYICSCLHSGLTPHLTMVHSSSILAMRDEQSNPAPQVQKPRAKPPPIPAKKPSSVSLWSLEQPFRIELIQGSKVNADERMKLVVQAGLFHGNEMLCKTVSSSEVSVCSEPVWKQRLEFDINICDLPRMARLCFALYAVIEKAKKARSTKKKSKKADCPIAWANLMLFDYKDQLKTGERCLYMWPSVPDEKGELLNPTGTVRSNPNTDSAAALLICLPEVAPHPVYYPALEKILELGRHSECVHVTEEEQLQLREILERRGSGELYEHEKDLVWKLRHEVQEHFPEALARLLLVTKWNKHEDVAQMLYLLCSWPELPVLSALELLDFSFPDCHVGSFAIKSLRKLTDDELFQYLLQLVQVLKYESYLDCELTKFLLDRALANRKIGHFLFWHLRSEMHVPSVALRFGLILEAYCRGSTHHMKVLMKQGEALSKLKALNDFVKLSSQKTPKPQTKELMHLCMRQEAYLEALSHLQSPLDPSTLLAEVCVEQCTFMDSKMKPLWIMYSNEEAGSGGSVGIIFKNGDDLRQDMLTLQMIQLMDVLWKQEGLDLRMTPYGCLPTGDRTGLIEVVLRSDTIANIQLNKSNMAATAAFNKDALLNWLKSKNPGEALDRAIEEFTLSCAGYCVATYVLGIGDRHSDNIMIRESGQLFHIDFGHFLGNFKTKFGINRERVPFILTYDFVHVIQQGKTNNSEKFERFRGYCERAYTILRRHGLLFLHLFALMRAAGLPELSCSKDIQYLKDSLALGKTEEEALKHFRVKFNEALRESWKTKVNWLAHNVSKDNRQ"}, "CAMK2G (human)": {"biological_target": "CAMK2G (human) (UniProt Q13555)"}, "CAMK2A (human)": {"biological_target": "CAMK2A (human) (UniProt Q9UQM7)"}, "ROS1 (human)": {"biological_target": "ROS1 (human) (UniProt P08922)"}, "CDC42BPA (human)": {"biological_target": "CDC42BPA (human) (UniProt Q5VT25)"}, "PLK1 (human)": {"biological_target": "PLK1 (human) (UniProt P53350)", "sequence (P53350 whole entry, looked up)": "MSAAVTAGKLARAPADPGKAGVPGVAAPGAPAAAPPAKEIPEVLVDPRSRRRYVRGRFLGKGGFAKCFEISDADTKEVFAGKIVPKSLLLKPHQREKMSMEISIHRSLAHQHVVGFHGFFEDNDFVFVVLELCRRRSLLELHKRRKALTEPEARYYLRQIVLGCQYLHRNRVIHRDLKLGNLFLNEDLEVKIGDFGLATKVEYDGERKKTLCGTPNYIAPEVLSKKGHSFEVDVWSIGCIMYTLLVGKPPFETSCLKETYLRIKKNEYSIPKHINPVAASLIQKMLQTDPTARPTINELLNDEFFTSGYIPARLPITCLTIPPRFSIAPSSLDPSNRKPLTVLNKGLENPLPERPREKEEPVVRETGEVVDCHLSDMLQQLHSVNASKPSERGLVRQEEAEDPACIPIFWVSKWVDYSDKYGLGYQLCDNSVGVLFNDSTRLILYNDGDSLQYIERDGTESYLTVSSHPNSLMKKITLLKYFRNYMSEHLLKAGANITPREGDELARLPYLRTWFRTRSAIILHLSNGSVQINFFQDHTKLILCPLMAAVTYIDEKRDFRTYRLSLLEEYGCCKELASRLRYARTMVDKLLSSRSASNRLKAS"}, "FYN (human)": {"biological_target": "FYN (human) (UniProt P06241)"}, "[3]": {"tested_on": "FGFR3 (human), P22607 [G697C]", "sequence (P22607 whole entry G697C, looked up)": "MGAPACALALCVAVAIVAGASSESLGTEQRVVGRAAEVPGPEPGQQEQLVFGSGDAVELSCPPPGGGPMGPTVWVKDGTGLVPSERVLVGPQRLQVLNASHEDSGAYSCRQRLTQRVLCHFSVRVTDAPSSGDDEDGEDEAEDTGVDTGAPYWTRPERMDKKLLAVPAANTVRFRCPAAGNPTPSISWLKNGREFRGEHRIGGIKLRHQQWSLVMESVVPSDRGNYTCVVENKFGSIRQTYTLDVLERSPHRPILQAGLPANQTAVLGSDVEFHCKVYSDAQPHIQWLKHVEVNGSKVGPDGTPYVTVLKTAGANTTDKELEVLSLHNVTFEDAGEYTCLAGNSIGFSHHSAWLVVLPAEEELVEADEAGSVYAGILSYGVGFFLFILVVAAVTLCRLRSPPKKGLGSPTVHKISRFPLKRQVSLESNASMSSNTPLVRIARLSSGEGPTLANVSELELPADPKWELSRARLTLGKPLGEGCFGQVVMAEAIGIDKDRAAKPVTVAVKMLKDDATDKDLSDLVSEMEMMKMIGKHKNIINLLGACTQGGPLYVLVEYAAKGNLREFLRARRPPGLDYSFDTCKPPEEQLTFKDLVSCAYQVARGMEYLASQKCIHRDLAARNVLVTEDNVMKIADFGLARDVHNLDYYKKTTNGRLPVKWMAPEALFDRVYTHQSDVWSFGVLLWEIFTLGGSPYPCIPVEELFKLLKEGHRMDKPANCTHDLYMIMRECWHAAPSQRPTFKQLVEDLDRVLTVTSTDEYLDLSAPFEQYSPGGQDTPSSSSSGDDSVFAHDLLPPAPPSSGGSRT"}, "TIE1 (human)": {"biological_target": "TIE1 (human) (UniProt P35590)"}, "CDKL2 (human)": {"biological_target": "CDKL2 (human) (UniProt Q92772)"}}}
{"smiles": "CN1CCN(c2ccc(C(=O)Nc3ncc4c(n3)N(C)c3ccccc3C(=O)N4C)cc2)CC1", "values": [{"measurement": "kinase still bound, per cent of control", "setting": "EPHA2 (human)", "value": 100, "unit": "%"}, {"measurement": "kinase still bound, per cent of control", "setting": "FGFR2 (human)", "value": 100, "unit": "%"}, {"measurement": "kinase still bound, per cent of control", "setting": "TESK1 (human)", "value": 91, "unit": "%"}, {"measurement": "kinase still bound, per cent of control", "setting": "TNNI3K (human)", "value": 100, "unit": "%"}, {"measurement": "kinase still bound, per cent of control", "setting": "CDK18 (human)", "value": 100, "unit": "%"}, {"measurement": "kinase still bound, per cent of control", "setting": "DDR2 (human)", "value": 100, "unit": "%"}, {"measurement": "kinase still bound, per cent of control", "setting": "[1]", "value": 100, "unit": "%"}, {"measurement": "kinase still bound, per cent of control", "setting": "EPHB3 (human)", "value": 100, "unit": "%"}, {"measurement": "kinase still bound, per cent of control", "setting": "SIK2 (human)", "value": 78, "unit": "%"}, {"measurement": "kinase still bound, per cent of control", "setting": "ALK (human)", "value": 100, "unit": "%"}, {"measurement": "kinase still bound, per cent of control", "setting": "STK10 (human)", "value": 100, "unit": "%"}, {"measurement": "kinase still bound, per cent of control", "setting": "STK38L (human)", "value": 100, "unit": "%"}, {"measurement": "kinase still bound, per cent of control", "setting": "INSR (human)", "value": 100, "unit": "%"}, {"measurement": "kinase still bound, per cent of control", "setting": "EIF2AK2 (human)", "value": 100, "unit": "%"}, {"measurement": "kinase still bound, per cent of control", "setting": "[2]", "value": 98, "unit": "%"}, {"measurement": "kinase still bound, per cent of control", "setting": "MAP3K12 (human)", "value": 87, "unit": "%"}, {"measurement": "kinase still bound, per cent of control", "setting": "PRKD2 (human)", "value": 100, "unit": "%"}, {"measurement": "kinase still bound, per cent of control", "setting": "MAPK4 (human)", "value": 100, "unit": "%"}, {"measurement": "kinase still bound, per cent of control", "setting": "PRKCQ (human)", "value": 100, "unit": "%"}, {"measurement": "kinase still bound, per cent of control", "setting": "RAF1 (human)", "value": 100, "unit": "%"}, {"measurement": "kinase still bound, per cent of control", "setting": "LATS1 (human)", "value": 88, "unit": "%"}, {"measurement": "kinase still bound, per cent of control", "setting": "EPHA6 (human)", "value": 100, "unit": "%"}, {"measurement": "kinase still bound, per cent of control", "setting": "PKMYT1 (human)", "value": 93, "unit": "%"}, {"measurement": "kinase still bound, per cent of control", "setting": "STK3 (human)", "value": 82, "unit": "%"}, {"measurement": "kinase still bound, per cent of control", "setting": "AURKA (human)", "value": 96, "unit": "%"}, {"measurement": "kinase still bound, per cent of control", "setting": "PRKG1 (human)", "value": 100, "unit": "%"}, {"measurement": "kinase still bound, per cent of control", "setting": "MARK2 (human)", "value": 100, "unit": "%"}, {"measurement": "kinase still bound, per cent of control", "setting": "ZAP70 (human)", "value": 100, "unit": "%"}, {"measurement": "kinase still bound, per cent of control", "setting": "LATS2 (human)", "value": 100, "unit": "%"}, {"measurement": "kinase still bound, per cent of control", "setting": "BMPR1A (human)", "value": 100, "unit": "%"}, {"measurement": "kinase still bound, per cent of control", "setting": "MARK3 (human)", "value": 100, "unit": "%"}, {"measurement": "kinase still bound, per cent of control", "setting": "MLTK (human)", "value": 100, "unit": "%"}, {"measurement": "kinase still bound, per cent of control", "setting": "PIK3CD (human)", "value": 100, "unit": "%"}, {"measurement": "kinase still bound, per cent of control", "setting": "CAMK2G (human)", "value": 100, "unit": "%"}, {"measurement": "kinase still bound, per cent of control", "setting": "CAMK2A (human)", "value": 100, "unit": "%"}, {"measurement": "kinase still bound, per cent of control", "setting": "ROS1 (human)", "value": 100, "unit": "%"}, {"measurement": "kinase still bound, per cent of control", "setting": "CDC42BPA (human)", "value": 100, "unit": "%"}, {"measurement": "kinase still bound, per cent of control", "setting": "PLK1 (human)", "value": 100, "unit": "%"}, {"measurement": "kinase still bound, per cent of control", "setting": "FYN (human)", "value": 95, "unit": "%"}, {"measurement": "kinase still bound, per cent of control", "setting": "[3]", "value": 98, "unit": "%"}, {"measurement": "kinase still bound, per cent of control", "setting": "TIE1 (human)", "value": 100, "unit": "%"}, {"measurement": "kinase still bound, per cent of control", "setting": "CDKL2 (human)", "value": 100, "unit": "%"}]}
